Assay results taken from the Deep4Chem optical property database.
Values belong to the molecule of their own block, whether it stands above or below them.

Assay: photoluminescence quantum yield (fraction); solvent given as SMILES

Compound: COc1ccc2c3c(cccc13)C(=O)c1ccccc1-2
photoluminescence quantum yield (in CC#N): 0.62 | photoluminescence quantum yield (in CC(C)=O): 0.56 | photoluminescence quantum yield (in CC(C)O): 0.54 | photoluminescence quantum yield (in CCCCOCCCC): 0.01 | photoluminescence quantum yield (in CCOC(C)=O): 0.23 | photoluminescence quantum yield (in CCOCC): 0.05 | photoluminescence quantum yield (in CO): 0.45 | photoluminescence quantum yield (in Cc1ccccc1): 0.1 | photoluminescence quantum yield (in Clc1ccccc1): 0.41 | photoluminescence quantum yield (in N#Cc1ccccc1): 0.69 | photoluminescence quantum yield (in O=C1CCCCC1): 0.57

Compound: C(#Cc1nc2ccccc2s1)c1ccc(N(c2ccc(C#Cc3nc4ccccc4s3)cc2)c2ccc(C#Cc3nc4ccccc4s3)cc2)cc1
photoluminescence quantum yield (in Cc1ccccc1): 0.8

Compound: F[B-]1(F)n2cccc2C(c2ccc(-c3c4ccccc4c(-c4ccccc4)c4ccccc34)cc2)=C2C=CC=[N+]21
photoluminescence quantum yield (in CC#N): 0.001 | photoluminescence quantum yield (in CCCCCC): 0.014 | photoluminescence quantum yield (in CCO): 0.003 | photoluminescence quantum yield (in CN(C)C=O): 0.002 | photoluminescence quantum yield (in Cc1ccccc1): 0.036 | photoluminescence quantum yield (in ClCCl): 0.002

Compound: COc1ccc(-c2cc3ccc4cc(-c5ccc(OC)cc5)cc5ccc(c2)c3c45)cc1
photoluminescence quantum yield (in C1CCCCC1): 0.08 | photoluminescence quantum yield (in C1CCOC1): 0.17 | photoluminescence quantum yield (in CC#N): 0.13 | photoluminescence quantum yield (in CCCCCC): 0.04 | photoluminescence quantum yield (in CCO): 0.12 | photoluminescence quantum yield (in CN(C)C=O): 0.34 | photoluminescence quantum yield (in CO): 0.09 | photoluminescence quantum yield (in Cc1ccccc1): 0.09 | photoluminescence quantum yield (in ClC(Cl)Cl): 0.04 | photoluminescence quantum yield (in ClCCl): 0.09

Compound: Cc1ccc2c(c1)C1(c3ccccc3Oc3ccccc31)c1cc(C)ccc1N2c1ccc(-c2nc(-c3ccccc3)cc(-c3ccccc3)n2)cc1
photoluminescence quantum yield (in O=P(c1ccccc1)(c1ccccc1)c1ccc2oc3ccc(P(=O)(c4ccccc4)c4ccccc4)cc3c2c1): 0.69

Compound: Cc1cc(=O)oc2c3c4c(cc12)CCCN4CCC3
photoluminescence quantum yield (in CCC#N): 0.9 | photoluminescence quantum yield (in CCCCl): 0.8 | photoluminescence quantum yield (in CCO): 0.8 | photoluminescence quantum yield (in OC(C(F)(F)F)C(F)(F)F): 0.86 | photoluminescence quantum yield (in OCC(F)(F)F): 0.84

Compound: COc1cc(/C=C/c2cc(OC)c(-c3nc(-c4ccccc4)c(-c4ccccc4)[nH]3)cc2OC)c(OC)cc1/C=C/c1cc(OC)c(-c2nc(-c3ccccc3)c(-c3ccccc3)[nH]2)cc1OC
photoluminescence quantum yield (in C1CCOC1): 0.54 | photoluminescence quantum yield (in CC#N): 0.24 | photoluminescence quantum yield (in CN(C)C=O): 0.42 | photoluminescence quantum yield (in Cc1ccccc1): 0.63

Compound: COC(=O)C(Cc1ccc2oc(-c3ccc(N(c4ccccc4)c4ccccc4)cc3)nc2c1)NC(=O)OC(C)(C)C (centres undefined)
photoluminescence quantum yield (in C1CCCCC1): 0.87 | photoluminescence quantum yield (in C1CCOC1): 0.77 | photoluminescence quantum yield (in C1COCCO1): 0.47 | photoluminescence quantum yield (in CC1CCCCC1): 0.94 | photoluminescence quantum yield (in CC1COC(=O)O1): 0.67 | photoluminescence quantum yield (in CC#N): 0.62 | photoluminescence quantum yield (in CC(C)=O): 0.68 | photoluminescence quantum yield (in CC(C)O): 0.77 | photoluminescence quantum yield (in CC(O)CO): 0.63 | photoluminescence quantum yield (in CCCCCC): 0.98 | photoluminescence quantum yield (in CCCCCCCC): 0.99 | photoluminescence quantum yield (in CCCCCO): 0.76 | photoluminescence quantum yield (in CCCCO): 0.87 | photoluminescence quantum yield (in CCO): 0.61 | photoluminescence quantum yield (in CCOC(C)=O): 0.8 | photoluminescence quantum yield (in CN(C)C=O): 0.72 | photoluminescence quantum yield (in CO): 0.42 | photoluminescence quantum yield (in COCCOC): 0.44 | photoluminescence quantum yield (in CS(C)=O): 0.69 | photoluminescence quantum yield (in ClC(Cl)Cl): 0.88 | photoluminescence quantum yield (in ClCCl): 0.87 | photoluminescence quantum yield (in N#Cc1ccccc1): 0.26 | photoluminescence quantum yield (in NC=O): 0.35 | photoluminescence quantum yield (in O): 0.003 | photoluminescence quantum yield (in OCC(F)(F)F): 0.05

Compound: COCCC1=Cc2nc1ccc1[nH]c(cc1CCOC)c1nc(c(NC(=O)CCCC(=O)O)cc3[nH]c2cc3CCOC)C(CCOC)=C1
photoluminescence quantum yield (in Cc1ccccc1): 0.15

Compound: O=Cc1ccc2c(c1)c1ccccc1n2-c1cc2ccccc2c2ccccc12
photoluminescence quantum yield (in CC#N): 0.015 | photoluminescence quantum yield (in CCCCC): 0.025 | photoluminescence quantum yield (in Cc1ccccc1): 0.022 | photoluminescence quantum yield (in ClCCl): 0.03

Compound: Nc1cccc2cc3ccccc3cc12
photoluminescence quantum yield (in C1CCCCC1): 0.8

Compound: COc1ccc(C2=CC3=C(c4c(C)cc(C)cc4C)c4cc(-c5ccc(OC)cc5)c(-c5ccc(OC)cc5)n4[B-](F)(F)[N+]3=C2c2ccc(OC)cc2)cc1
photoluminescence quantum yield (in C1CCCCC1): 0.64 | photoluminescence quantum yield (in C1CCOC1): 0.42 | photoluminescence quantum yield (in CC#N): 0.24 | photoluminescence quantum yield (in Cc1ccccc1): 0.51 | photoluminescence quantum yield (in ClCCl): 0.42

Compound: CCC1=C(C)C2=C(C)c3cc(I)c(I)n3[B-](F)(F)[N+]2=C1C
photoluminescence quantum yield (in C1CCCCC1): 0.2 | photoluminescence quantum yield (in CC(C)=O): 0.13 | photoluminescence quantum yield (in CCO): 0.16 | photoluminescence quantum yield (in CCOC(C)=O): 0.15 | photoluminescence quantum yield (in CO): 0.13 | photoluminescence quantum yield (in OCC(F)(F)F): 0.11

Compound: CN(C)c1ccc(C#Cc2ccccc2)cc1
photoluminescence quantum yield (in C1CCCCC1): 0.35 | photoluminescence quantum yield (in C1CCOC1): 0.244 | photoluminescence quantum yield (in C1COCCO1): 0.32 | photoluminescence quantum yield (in CC1CCCO1): 0.314 | photoluminescence quantum yield (in CC#N): 0.102 | photoluminescence quantum yield (in CC(C)=O): 0.103 | photoluminescence quantum yield (in CC(C)CC(C)(C)C): 0.28 | photoluminescence quantum yield (in CC(C)O): 0.011 | photoluminescence quantum yield (in CCCCCCCCCCCCCCCC): 0.372 | photoluminescence quantum yield (in CCCCCCCCCCCCCCCCCl): 0.409 | photoluminescence quantum yield (in CCOC(C)=O): 0.25 | photoluminescence quantum yield (in CCOCC): 0.11 | photoluminescence quantum yield (in CN(C)C=O): 0.3 | photoluminescence quantum yield (in CO): 0.01 | photoluminescence quantum yield (in CS(C)=O): 0.29 | photoluminescence quantum yield (in Cc1ccccc1): 0.39

Compound: Cc1cc(-c2nnc(-c3ccccc3)o2)ccc1-n1c2ccccc2c2ccccc21
photoluminescence quantum yield (in Cc1ccccc1): 0.56

Compound: COc1cc(C2=CC3=C(c4c(C)cc(C)cc4C)c4cc(-c5cc(OC)c(OC)c(OC)c5)c(-c5cc(OC)c(OC)c(OC)c5)n4[B-](F)(F)[N+]3=C2c2cc(OC)c(OC)c(OC)c2)cc(OC)c1OC
photoluminescence quantum yield (in C1CCCCC1): 0.33 | photoluminescence quantum yield (in C1CCOC1): 0.08 | photoluminescence quantum yield (in CC#N): 0.02 | photoluminescence quantum yield (in Cc1ccccc1): 0.16 | photoluminescence quantum yield (in ClCCl): 0.05

Compound: COc1ccc(-c2cc3c(o2)=CC2=Cc4cc5oc(-c6ccc(OC)cc6)cc5n4[B-](F)(F)[N+]=32)cc1
photoluminescence quantum yield (in C1CCOC1): 0.83 | photoluminescence quantum yield (in CC#N): 0.85 | photoluminescence quantum yield (in CCO): 0.77 | photoluminescence quantum yield (in CO): 0.77 | photoluminescence quantum yield (in Cc1ccccc1): 0.87 | photoluminescence quantum yield (in ClC(Cl)Cl): 0.86

Compound: Cc1ccc2c(c1)c1cc(C)ccc1n2-c1cccc(-n2c3ccc(C)cc3c3cc(C)ccc32)c1C#N
photoluminescence quantum yield (in Cc1ccccc1): 0.34 | photoluminescence quantum yield (in O=P(c1ccccc1)(c1ccccc1)c1ccccc1Oc1ccccc1P(=O)(c1ccccc1)c1ccccc1): 0.66

Compound: c1ccc(N(c2ccccc2)c2ccc3c(ccc4nc5ccc6cc(N(c7ccccc7)c7ccccc7)ccc6c5nc43)c2)cc1
photoluminescence quantum yield (in C1CCCCC1): 0.56 | photoluminescence quantum yield (in C1CCOC1): 0.59 | photoluminescence quantum yield (in CN(C)C=O): 0.34 | photoluminescence quantum yield (in Cc1ccccc1): 0.44 | photoluminescence quantum yield (in ClCCl): 0.64

Second part, the molecule after the results:

photoluminescence quantum yield (in CO): 0.37 | photoluminescence quantum yield (in ClC(Cl)Cl): 0.59 | photoluminescence quantum yield (in O): 0.03
Compound: CC(=O)OCCOCCN1C(=O)c2cc(NCCOCCO)c3c4c(cc(NCCOCCO)c(c24)C1=O)C(=O)N(CCOCCOC(C)=O)C3=O

photoluminescence quantum yield (in CC#N): 0.84 | photoluminescence quantum yield (in ClCCl): 0.98
Compound: COc1ccc(-c2cc3c(s2)c(C(C)=O)cc(=O)n3C)cc1

photoluminescence quantum yield (in ClCCl): 0.284
Compound: COc1cccc2cc(C)c3c4ccccc4[nH]c3c12

photoluminescence quantum yield (in C1CCCCC1): 0.034 | photoluminescence quantum yield (in CC#N): 0.008 | photoluminescence quantum yield (in CCO): 0.01 | photoluminescence quantum yield (in CCOC(C)=O): 0.011 | photoluminescence quantum yield (in CO): 0.008 | photoluminescence quantum yield (in OCC(F)(F)F): 0.009
Compound: Cc1ccc(C2=C3C=C(I)C=[N+]3[B-](F)(F)n3cccc32)cc1

photoluminescence quantum yield (in CC#N): 0.3
Compound: Oc1ccc2ccc(C3(O)C4CC5CC(C4)CC3C5)cc2c1 (centres undefined)

photoluminescence quantum yield (in CC#N): 0.2 | photoluminescence quantum yield (in CCCCCC): 0.13 | photoluminescence quantum yield (in CO): 0.131
Compound: c1ccc2c(c1)CCc1ccccc1N2

photoluminescence quantum yield (in CC#N): 0.56 | photoluminescence quantum yield (in CO): 0.55 | photoluminescence quantum yield (in O): 0.62
Compound: CNCCCC1c2ccccc2C=Cc2ccccc21

photoluminescence quantum yield (in ClCCl): 0.04
Compound: Cc1cc2ccccc2c2c1c1ccccc1n2-c1ccc(C#N)cc1

photoluminescence quantum yield (in C1CCOC1): 0.011
Compound: CCOC(=O)c1ccc(C2=C(c3ccccc3)c3sc4ccccc4[n+]3[B-](F)(F)O2)cc1

photoluminescence quantum yield (in CC#N): 0.52 | photoluminescence quantum yield (in CO): 0.15 | photoluminescence quantum yield (in ClCCl): 0.6
Compound: Cc1cccc(-c2[nH]c(=O)n3c2-c2ccccc2C3=O)c1O

photoluminescence quantum yield (in C1CCCCC1): 1
Compound: CCC(C)(C)c1ccc2c(c1)C(CC)(CC)c1cc(-c3ccc(-c4ccc5c(c4)C(CC)(CC)c4cc(C(C)(C)CC)ccc4-5)cc3)ccc1-2

photoluminescence quantum yield (in ClCCl): 0.00044
Compound: COc1cc2c(cc1OC)C1=C[C@H](c3ccc(Cl)cc3)C3(C(C#N)=C(C#N)N1CC2)c1ccccc1-c1ccccc13

photoluminescence quantum yield (in CCO): 0.43
Compound: CC1CC=C(c2ccc(-c3ccc(C=O)s3)s2)CC1 (centres undefined)

photoluminescence quantum yield (in CS(C)=O): 0.62
Compound: COc1cccc(-c2nc3sc4ccccc4c3s2)c1

photoluminescence quantum yield (in CC#N): 0.4
Compound: CCOC(=O)c1c2c3c(ccc(C)c3c3cc4c(cc13)[Si](C)(C)O[Si]4(C)C)N(C)C2=O

photoluminescence quantum yield (in ClCCl): 0.32
Compound: C(=C\c1cccc2ccccc12)/c1ncc(-c2ccccc2)o1

photoluminescence quantum yield (in ClCCl): 0.77
Compound: COc1ccccc1C1=[N+]2C(=C(c3ccccc3)c3c4c(c(-c5ccccc5OC)n3[B-]2(F)F)C2CCC4CC2)C2=C1C1CCC2CC1

photoluminescence quantum yield (in C1COCCO1): 0.423 | photoluminescence quantum yield (in CC(C)O): 0.549 | photoluminescence quantum yield (in CCCCCC): 0.502 | photoluminescence quantum yield (in CCCCCCC): 0.689 | photoluminescence quantum yield (in CCCCCCCC): 0.701 | photoluminescence quantum yield (in CCCCCCCCO): 0.317 | photoluminescence quantum yield (in CCO): 0.783 | photoluminescence quantum yield (in CO): 0.518
Compound: COc1ncccc1B(O)O

photoluminescence quantum yield (in ClCCl): 0.26
Compound: c1ccc(B2Nc3cc4c(cc3-c3occc32)NB(c2ccccc2)c2ccoc2-4)cc1

photoluminescence quantum yield (in C1COCCO1): 0.73 | photoluminescence quantum yield (in CC#N): 0.65 | photoluminescence quantum yield (in CO): 0.14 | photoluminescence quantum yield (in ClCCl): 0.81
Compound: N#Cc1nc2c(OCc3ccccc3)nc(N)nc2n1Cc1ccccc1

photoluminescence quantum yield (in CC#N): 0.24 | photoluminescence quantum yield (in CCCCOCCCC): 0.57 | photoluminescence quantum yield (in CO): 0.02
Compound: COc1nc(Nc2ccc3ccc4cccc5ccc2c3c45)nc(OC)n1

photoluminescence quantum yield (in ClCCl): 0.82
Compound: CCN(CC)c1ccc2cc(C#N)c(=O)oc2c1

photoluminescence quantum yield (in ClC(Cl)Cl): 0.1
Compound: CC(C)[Si](C#Cc1c2c(=O)c3ccccc3c2c(C#C[Si](C(C)C)(C(C)C)C(C)C)c2c(=O)c3ccccc3c12)(C(C)C)C(C)C
